What all share (format): in vivo
One assay relates to rice (Oryza sativa). Kind of assay: Test B flooded paddy test, visual plant response rating 0-100. The conditions noted are these: 250 g ai/ha, Flood, applied to paddy water, evaluated after 13 days. The procedure, abridged:
(§1)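 Paddy-water application: test compounds went directly into water flooded 3 cm above the soil surface, with plants at 2 leaves. After a 13-day greenhouse period, responses were judged by eye relative to controls; a dash marks an untested entry.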

Assay [1] has as its system ducksalad (Heteranthera limosa). The description is as above. The conditions noted are these: 250 g ai/ha, Flood, applied to paddy water, evaluated after 13 days. The procedure, abridged:
as §1

Assay [2] relates to barnyardgrass (Echinochloa crusgalli). The description is as above. The settings on record: 250 g ai/ha, Flood, applied to paddy water, evaluated after 13 days. A digest of the protocol: as §1
In assay [3] the test system is sedge, umbrella (small-flower umbrella sedge, Cyperus difformis). The assay is described as above. The conditions noted are these: 250 g ai/ha, Flood, applied to paddy water, evaluated after 13 days. The procedure, abridged:
as §1

For assay [4], the system named is green foxtail (Setaria viridis). In words: Test A preemergence soil spray, visual injury rating 0-100. The conditions noted are these: 1000 g ai/ha, 10 days, 0 = no effect, 100 = complete control. A digest of the protocol:
(§2)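 Plants were grown in a loam soil-sand blend and treated with test chemical in a non-phytotoxic solvent mixture containing surfactant, either sprayed on soil preemergence or applied postemergence to 2-10 cm plants. After 10 days in a greenhouse, injury was scored visually against untreated controls, 0 meaning no effect and 100 complete control.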

The subject of assay [5] is ragweed (common ragweed, Ambrosia artemisiifolia). Described as above. The conditions noted are these: 1000 g ai/ha, 10 days, 0 = no effect, 100 = complete control. The procedure, abridged: as §2
Assay [6] has as its system blackgrass (Alopecurus myosuroides). Described as above. The settings on record: 1000 g ai/ha, 10 days, 0 = no effect, 100 = complete control. The procedure, abridged:
as §2

Assay [7] has as its system kochia (Bassia scoparia). Described as above. The settings on record: 1000 g ai/ha, 10 days, 0 = no effect, 100 = complete control. The procedure, abridged:
as §2

Assay [8] relates to palmer (palmer amaranth, palmer pigweed, Amaranthus palmeri). The description is as above. The settings on record: 1000 g ai/ha, 10 days, 0 = no effect, 100 = complete control. A digest of the protocol: as §2
Assay [9] has as its system ryegrass, Italian (italian ryegrass, Lolium multiflorum). The description is as above. The conditions noted are these: 1000 g ai/ha, 10 days, 0 = no effect, 100 = complete control. The procedure, abridged:
as §2

The subject of assay [10] is barnyardgrass (Echinochloa crus-galli). Described as above. The settings on record: 1000 g ai/ha, 10 days, 0 = no effect, 100 = complete control. A digest of the protocol: as §2
For assay [11], the system named is green foxtail (Setaria viridis). In words: Test A postemergence application, visual injury rating 0-100. The settings on record: Postemergence, 1000 g ai/ha, 0 to 100 scale, 10 days. A digest of the protocol: as §2
Assay [12] relates to galium (catchweed bedstraw, Galium aparine). The description is as above. The conditions noted are these: Postemergence, 1000 g ai/ha, 0 to 100 scale, 10 days. The procedure, abridged: as §2
The test system of assay [13] is horseweed (Erigeron canadensis). The description is as above. The settings on record: Postemergence, 1000 g ai/ha, 0 to 100 scale, 10 days. A digest of the protocol:
as §2

Assay [14] deals with blackgrass (Alopecurus myosuroides). The assay is described as above. The conditions noted are these: Postemergence, 1000 g ai/ha, 0 to 100 scale, 10 days. A digest of the protocol:
as §2

The subject of assay [15] is kochia (Bassia scoparia). The description is as above. The conditions noted are these: Postemergence, 1000 g ai/ha, 0 to 100 scale, 10 days. The procedure, abridged:
as §2

For assay [16], the system named is barnyardgrass (Echinochloa crus-galli). The assay is described as above. The conditions noted are these: Postemergence, 1000 g ai/ha, 0 to 100 scale, 10 days. A digest of the protocol:
as §2

Molecules are shown by their SMILES.

Consider `COC(=O)C1=CCC(NC(=O)C2(C)CN(c3cc(F)cc(F)c3)C(=O)N2)C1` (mixture of isomers) [Compound 181], for which the “Plant response rating, Rice (0 to 100 scale, 0 is no effect and 100 is complete control)” value in the assay on rice (Oryza sativa) was determined as 15. For the same compound, in assay [1], the “Plant response rating, Ducksalad (0 to 100 scale, 0 is no effect and 100 is complete control)” value was 30. For the same compound, the “Plant response rating, Barnyardgrass (0 to 100 scale, 0 is no effect and 100 is complete control)” value in [2] is reported as 10. The “Plant response rating, Sedge, Umbrella (0 to 100 scale, 0 is no effect and 100 is complete control)” value in assay [3] worked out at 0. Further, the “Foxtail, Green plant response rating (0 to 100 scale)” value in assay [4] is recorded as 90. Besides, the “Ragweed plant response rating (0 to 100 scale)” value in assay [5] is given as 0. The “Blackgrass plant response rating (0 to 100 scale)” value in [6] is 80. Moreover, in the assay on kochia (Bassia scoparia) [7], the “Kochia plant response rating (0 to 100 scale)” value was found to be 90. Moreover, in [8], the “Amaranth, Palmer / Pigweed, Palmer plant response rating (0 to 100 scale)” value worked out at 90. For the same compound, the “Ryegrass, Italian plant response rating (0 to 100 scale)” value in assay [9] came out at 0. Also, the “Barnyardgrass plant response rating (0 to 100 scale)” value in assay [10] is recorded as 80. In assay [11], the “Foxtail, Green plant response rating” value worked out at 90. Besides, in assay [12], the “Galium plant response rating” value is recorded as 90. The “Horseweed plant response rating” value in assay [13] was 10. The “Blackgrass plant response rating” value in assay [14] is recorded as 90. In the assay on kochia (Bassia scoparia) [15], the “Kochia plant response rating” value is 80. The “Barnyardgrass plant response rating” value in assay [16] turned out to be 90.

These data come from patent publication US20260285850A1, “SUBSTITUTED OXAZOLIDINONES AND IMIDAZOLINONES AS HERBICIDES” (FMC CORPORATION, priority 2023, published 2026).
